Data on ten compounds can be found in ChEMBL document CHEMBL1201862, “PubChem BioAssay data set” (2004).

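Growth conditions: 96-well plates. Treatment: test compound, 48 hours, 5 concentrations. Analysis: linear interpolation between bracketing concentrations; unreached endpoints set to highest concentration. GI50 = concentration required for 50% inhibition of growth.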 Active and inactive are the calls of the source. Rule as the data show it: active = GI50 up to about 1.1 µM and inactive = higher.

What all share (assay): NCI tumour cell line growth inhibition, 48 h
The test system of assay [1] is OVCAR-4.
The test system of assay [2] is SK-MEL-2.
In assay [3] the test system is NCI-H460.
Assay [4] has as its system RXF 393.
Assay [5] deals with IGROV-1.
Assay [6] deals with KM12.
Assay [7] deals with RPMI-8226.
The subject of assay [8] is SNB-19.
The test system of assay [9] is HOP-92.
Assay [10] has as its system OVCAR-5.
Assay [11] has as its system SN12C.
Assay [12] concerns HL-60.
The test system of assay [13] is U-251.
The subject of assay [14] is DMS-273.
For assay [15], the system named is K562.
Assay [16] relates to OVCAR-8.
The subject of assay [17] is NCI-H23.
For assay [18], the system named is PC-3.
Assay [19] has as its system MDA-MB-435.
The subject of assay [20] is Hs-578T.

On to `COC(OC)[C@@H](C)[C@H](O)[C@](C)(O)C1OC(C)(C)OC(C(C)C=C(C)C)C1C` (stereo not given in full), for which the GI50 in [1] is > 100 µM (inactive); in [2] it was > 100 µM (inactive); in assay [3] it was > 100 µM (inactive); in [4], 66.4 µM (inactive); in [5], > 100 µM (inactive); in assay [6] it was > 100 µM (inactive). The GI50 in [7] is 48.6 µM (inactive); in [8], > 100 µM (inactive); in [9], > 100 µM (inactive); in assay [10], > 100 µM (inactive); in [11] it was > 100 µM (inactive); in assay [12], 29.9 µM (inactive). In addition, the GI50 is > 100 µM (inactive) in [13]; > 100 µM (inactive) in assay [14]; 77.1 µM (inactive) in [15]; > 100 µM (inactive) in assay [16]; > 100 µM (inactive) in assay [17].

Consider `COc1ccc2c(c1)c1ccc3c(c1n2C)C(=O)C=CC3=O`, for which the GI50 is 8.38 µM (inactive) in assay [1]; 17.2 µM (inactive) in assay [2]; 12.8 µM (inactive) in [18]; 26.9 µM (inactive) in assay [3]; 5.35 µM (inactive) in [4]; 7.96 µM (inactive) in assay [19]. For the same compound, the GI50 in assay [20] is 8.09 µM (inactive); in assay [5] it was 12.7 µM (inactive); in assay [6] it was 18 µM (inactive); in assay [7] it was 2.17 µM (inactive); in [8], 26 µM (inactive); in [9], 4.95 µM (inactive). Further, the GI50 is 15.2 µM (inactive) in [10]; 8.38 µM (inactive) in assay [11]; 0.904 µM (active) in assay [12]; 12.5 µM (inactive) in [13]; 24.3 µM (inactive) in [14]; 1.22 µM (inactive) in assay [15]. Also, the GI50 was 11.4 µM (inactive) in assay [16] and 13 µM (inactive) in assay [17].

`CCC(/C=C/C1OC(=O)C=CC1C)=C\C(C)C/C=C/C(C)=C/C(C)C(=O)C(C)C(O)C(C)C/C(C)=C/C(=O)O` (stereo not given): the GI50 in assay [1] is 1.64 µM (inactive); in assay [2], 4.31 µM (inactive); in [18], 1.27e-05 µM (active); in assay [4], 1.13 µM (inactive); in assay [19], 2.33e-06 µM (active); in [20], 1.44e-05 µM (active). In addition, the GI50 in [5] was 4.07 µM (inactive); in [6], 4.54 µM (inactive); in assay [7] it was 1.37 µM (inactive); in [8], 3.09 µM (inactive); in assay [9], 4.98e-06 µM (active); in assay [10] it was 6.65 µM (inactive). Further, the GI50 was 2.72 µM (inactive) in [11]; 0.855 µM (active) in assay [12]; 2.26 µM (inactive) in assay [13]; 1.1 µM (active) in assay [14]; 1.02 µM (active) in assay [15]; 3.14 µM (inactive) in [16]. Further, the GI50 in [17] was 1.04 µM (active).

In the case of `Cc1nc(NC(=S)NC(=O)c2ccc(Cl)c(Cl)c2)sc1C(=O)/C=C/c1ccccc1[N+](=O)[O-]`, the GI50 in assay [1] is 26.8 µM (inactive); in assay [2], 18.4 µM (inactive); in assay [3], 28.9 µM (inactive); in assay [4], 19.4 µM (inactive); in [5], 24.5 µM (inactive); in assay [6], 18.7 µM (inactive). In addition, the GI50 in assay [7] was 24.2 µM (inactive); in assay [8] it was 21.1 µM (inactive); in assay [9], 0.989 µM (active); in assay [10], > 10 µM (inactive); in assay [11], 21.6 µM (inactive); in assay [12], 19.1 µM (inactive). For the same compound, the GI50 in [13] was 17.9 µM (inactive); in assay [14], 20.9 µM (inactive); in [15], 18.2 µM (inactive); in assay [16], 28.1 µM (inactive); in assay [17], 20.9 µM (inactive).

With `O=C1/C(=C/c2ccccc2)CN(C(=O)Oc2ccc([N+](=O)[O-])cc2)C/C1=C\c1ccccc1`, the GI50 in [1] is 2.56 µM (inactive); in assay [2], 14.2 µM (inactive); in assay [3], 6.03 µM (inactive); in assay [4] it was 6.84 µM (inactive); in [5], 6.84 µM (inactive); in assay [6], 0.661 µM (active). For the same compound, the GI50 in assay [7] was 0.0551 µM (active); in [8], 6.65 µM (inactive); in assay [9] it was > 10 µM (inactive); in [10] it was > 10 µM (inactive); in [11], 2.79 µM (inactive); in assay [12], 1.04 µM (active). The GI50 in assay [13] is 1.77 µM (inactive); in assay [14], 0.883 µM (active); in assay [15], 0.859 µM (active); in assay [16], 1.12 µM (active); in [17], 7.76 µM (inactive).

Turning to `Cc1nc(Nc2ccc(Cl)c(Cl)c2)sc1C(/C=C/c1ccc2c(c1)OCO2)=N/Nc1ccc([N+](=O)[O-])cc1[N+](=O)[O-]`, the GI50 in assay [1] was > 100 µM (inactive); in assay [2], > 100 µM (inactive); in assay [18] it was > 100 µM (inactive); in assay [3] it was > 100 µM (inactive); in [4], 27.2 µM (inactive); in [19], > 100 µM (inactive). Moreover, the GI50 in assay [20] was > 74.5 µM (inactive); in assay [5], > 100 µM (inactive); in assay [6], > 88.7 µM (inactive); in assay [7] it was > 82.2 µM (inactive); in [8] it was 48.1 µM (inactive); in assay [9], 85.1 µM (inactive). Also, the GI50 was > 100 µM (inactive) in [10]; > 100 µM (inactive) in assay [11]; > 79.6 µM (inactive) in [12]; 41.1 µM (inactive) in assay [13]; 32 µM (inactive) in assay [14]; > 80.4 µM (inactive) in assay [15]. Also, the values for the GI50 in [16] and in [17] were > 100 µM (inactive) and 67.3 µM (inactive), respectively.

As for `O=C(O)C#CCO`, the GI50 in [1], in [2], in [3], in assay [4], in assay [5] and in [6] was > 100 µM (inactive) throughout. The GI50 in assay [7], in assay [8], in assay [9], in [10], in assay [11] and in assay [12] was > 100 µM (inactive) in each case. The GI50 in assay [13], in assay [14], in assay [15], in [16] and in assay [17] was > 100 µM (inactive) throughout.

On to `COc1ccccc1NC(=O)C(CC(C(=O)Nc1ccccc1OC)/C(C)=N/NC(=O)c1ccccc1O)/C(C)=N/NC(=O)c1ccccc1O` (stereo not given), for which the GI50 in assay [1] was 51.8 µM (inactive); in [2], > 100 µM (inactive); in assay [3] it was 57.9 µM (inactive); in assay [4], 38.8 µM (inactive); in assay [5] it was > 100 µM (inactive); in [6], > 100 µM (inactive). Further, the GI50 in assay [7] is 59.8 µM (inactive); in assay [8] it was 61.7 µM (inactive); in [9] it was 26 µM (inactive); in assay [10], > 100 µM (inactive); in [11], > 100 µM (inactive); in assay [12], 47.5 µM (inactive). The GI50 was 59 µM (inactive) in [13]; > 100 µM (inactive) in assay [14]; > 100 µM (inactive) in assay [15]; 75 µM (inactive) in [16]; > 100 µM (inactive) in assay [17].

In the case of `COc1ccc2c(=O)c(-c3cc(OC)c(OC)cc3OC)coc2c1`, the GI50 was > 100 µM (inactive) in [1]; 2.27 µM (inactive) in assay [2]; 4.16 µM (inactive) in [18]; 2.48 µM (inactive) in [3]; 2.45 µM (inactive) in assay [4]; 1.98 µM (inactive) in assay [20]. In addition, the GI50 in [5] is 19.2 µM (inactive); in [6] it was 2.74 µM (inactive); in assay [7], 2.35 µM (inactive); in [8] it was 15.3 µM (inactive); in assay [9] it was 1.81 µM (inactive); in [10], > 100 µM (inactive). Besides, the GI50 in assay [11] was 13.3 µM (inactive); in [12], 0.735 µM (active); in assay [13] it was 2.19 µM (inactive); in assay [14], 1.85 µM (inactive); in assay [15] it was 1.11 µM (active); in assay [16] it was 9.73 µM (inactive). Moreover, in assay [17], the GI50 is 8.67 µM (inactive).

In the case of `O=c1[nH]c2cc([N+](=O)[O-])ccc2nc1/C(=N/Nc1ccccc1)C(O)c1ccccc1Cl` (stereo not given), the GI50 in assay [1] is 79.8 µM (inactive); in assay [2], > 100 µM (inactive); in assay [3], 49.2 µM (inactive); in [4], > 100 µM (inactive); in assay [5], 43.9 µM (inactive); in [6], 27.8 µM (inactive). For the same compound, the GI50 in assay [7] is 52.4 µM (inactive); in [8] it was > 100 µM (inactive); in [9], > 100 µM (inactive); in [10] it was 95.5 µM (inactive); in assay [11], > 100 µM (inactive); in assay [12], > 100 µM (inactive). For the same compound, the GI50 is 58.6 µM (inactive) in assay [13]; 34.8 µM (inactive) in assay [14]; 42.5 µM (inactive) in assay [15]; > 100 µM (inactive) in assay [16]; 90.8 µM (inactive) in assay [17].
